Experimental findings from publication PMC7033200, “Annexin A1 accounts for an anti-inflammatory binding target of sesamin metabolites” (NPJ Science of Food, 2020) are described below.

For test [1], the system named is phosphorylated (Ser27) ANX A1 in U937 cells. The test can be described thus: ANX A1 Ser27 phosphorylation in U937 cells (western blotting). As to conditions: treated 1 h prior to LPS treatment. Format: cell-based, human. On the procedure:
For analyses of ANX A1 phosphorylation, the U937 cells treated as above were lysed with NP40 lysis buffer (20 mmol L^−1 Tris-HCl (pH 7.5), 150 mmol L^−1 NaCl, 1% NP40), and the lysates (10 μg) were subjected to SDS-PAGE, followed by western blotting using antibodies against ANX A1 or phosphorylated (Ser27) ANX A1 (dilution: 1:1000).

In test [2] the test system is extracellular ANX A1 release from U937 cells. Description: Extracellular release of ANX A1 from U937 cells (ELISA). The note with it: for cellular release of ANX A1: PMA/LPS-treated U937 cells. It is filed as cell-based, human. On the procedure: (§1) For enzyme-linked immunosorbent assay (ELISA) assays, U937 cells (control or ANX A1 KD) were seeded on 96-well plates and stimulated by adding 100 nmol L^−1 phorbol myristate acetate (Sigma-Aldrich, MO, USA) for 24 h. The cells were treated for 12 h with LPS (100 ng mL^−1) with or without adding the indicated sesamin, SC1, or SC2 and/or PD98059 concentrations. The cell culture supernatants were collected, and TNFα or ANX A1 production was measured using ELISA (TNFα: R&D Systems; ANX A1: USCN, Wuhan, China) according to the manufacturer’s instructions.

The test system of test [3] is TNFα production in U937 cells. Description: TNFα production in PMA/LPS-stimulated U937 cells (ELISA). It is filed as cell-based, human. As to conditions: for inhibition of TNFα production induced by LPS and PMA: U937 cells, dose-dependent. The protocol:
as §1

The test system of test [4] is TNFα production in ANX A1 KD U937 cells. Description: TNFα production in ANX A1 knockdown U937 cells (ELISA). As to conditions: U937 cells with knocked down ANX A1. Format: cell-based, human. On the procedure:
U937 cells were maintained in RPMI-1640 medium (Gibco/Thermo Fisher Scientific, MA, USA) supplemented with 10% fetal bovine serum. To generate a stable ANX A1-KD cell line, lentivirus vectors encoding a control or shRNA sequence targeting ANX A1 (Supplementary Methods) were transfected into 293FT cells. The lentivirus was prepared according to the manufacturer’s instructions (Invitrogen, MA, USA). U937 cells were infected with the lentivirus, and a stable cell line was selected by maintaining the cells in medium containing 10 μg mL^−1 blasticidin (Invitrogen) for 1 week.
as §1

In test [5] the target is T1, ANX A1 (Homo sapiens, UniProt P04083).
T1 construct: The ANX A1 cDNA fragment, full-length (1–346 a.a.) or deletion mutants; GST (pGEX-6P-1) (N, cleaved yes); made in house; host or cells: Escherichia coli BL21 (DE3)
T1 sequence (P04083 1-346): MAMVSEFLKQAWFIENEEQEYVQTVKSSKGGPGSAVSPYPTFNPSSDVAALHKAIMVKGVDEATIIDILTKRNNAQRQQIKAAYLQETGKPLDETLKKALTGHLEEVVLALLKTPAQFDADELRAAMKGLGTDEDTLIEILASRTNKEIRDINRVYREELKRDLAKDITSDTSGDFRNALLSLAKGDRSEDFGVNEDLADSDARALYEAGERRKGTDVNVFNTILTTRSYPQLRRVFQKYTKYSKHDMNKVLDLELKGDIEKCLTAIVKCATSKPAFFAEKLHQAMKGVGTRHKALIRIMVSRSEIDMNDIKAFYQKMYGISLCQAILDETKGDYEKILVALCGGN
The test can be described thus: Isothermal titration calorimetry (ITC) binding to ANX A1. The protocol:
ITC experiments were performed at 298 K with ITC buffer (20 mmol L^−1 Tris-HCl (pH 7.5), 100 mmol L^−1 NaCl, 2% dimethyl sulfoxide) using a MicroCal iTC200 (Malvern). SC1 or SC2 were dissolved at 2 mmol L^−1 with ITC buffer and titrated into 1 μmol L^−1 of ANX A1 protein with or without 2 mmol L^−1 EDTA (for apo-ANX A1) or 3 mmol L^−1 CaCl2 (for Ca^2+-bound ANX A1). The titration was performed by injecting 2 µL of the syringe solution at intervals of 120 s. The binding isotherms were analysed using SEDPHAT.[54]

For test [6], the system named is CCl4-treated WT mice. The test can be described thus: CCl4-induced liver damage and inflammation in WT mice. Format: in vivo, mouse (C57BL/6J). An excerpt: (§2) All protocols for animal procedures were approved by the Ethics Committee of Animal Experiments in accordance with the Internal Regulations on Animal Experiments at Keio University and Suntory Holdings Ltd, which are based on the Law for the Humane Treatment and Management of Animals (Law No. 105, 1 October 1973, as amended on 30 May 2014). Male C57BL/6J wild-type (WT) mice were purchased from CLEA Japan Inc. (Tokyo, Japan). WT and ANX A1-KO mice at 7 to 9 weeks of age received an intraperitoneal injection of vehicle (corn oil, 16.7 mL kg^−1) or CCl4 (50 μL kg^−1). To evaluate the effect of sesamin, vehicle (olive oil, 5 mL kg^−1) or sesamin (25 mg kg^−1) was orally administered twice at 1 h before and 7 h after CCl4 injection. To evaluate the effect of SC1, vehicle (ethanol dissolved in corn oil at a ratio of 1:19, 5 mL kg^−1) or SC1 (50 mg kg^−1) was intraperitoneally administered twice as mentioned above. Mice were euthanized after 12 or 24 h […] CCl4 injection before collecting blood and liver samples. Plasma AST, ALT, or LDH were measured using L-type AST J2, L-type ALT J2 or L-type LD J (Wako, Osaka, Japan), respectively. The liver tissues were fixed with 10% formalin, embedded in paraffin sectioned to 3–4 μm thickness and mounted on slides. Liver sections were de-paraffinized with xylene and re-hydrated with alcohols. The staining was performed with eosin solution for the cytoplasm and Mayer’s haematoxylin solution or monoclonal galectin-3 antibody (1:100, BioLegend, CA, USA). Slides were observed under a light microscope (BX52, Olympus, Japan), and images were analysed using LUMINA VISION (Mitani Corporation, Japan).
(§3) Production of TNFα or MCP-1 in the plasma or liver was measured using a V-PLEX Proinflammatory Panel 1 Mouse Kit or U-PLEX Mouse MCP-1 assay Kit (Meso Scale Diagnostics, USA), respectively. Plasma or liver tissues homogenised in phosphate-buffered saline (Nacalai Tesque) were applied into the pre-coated plate with antibodies against target proteins before labelling with secondary antibodies conjugated to chemiluminescence. The signal intensity was measured using an analyser (SECTOR Imager 6000, Meso Scale Diagnostics, USA).
(§4) Total RNA of the liver was extracted using an RNeasy Mini Kit (Qiagen, USA), and the cDNAs were prepared using High-Capacity cDNA Reverse Transcription Kits (Thermo Fisher Scientific, USA). Quantitative reverse transcription-PCR was performed according to the manufacturer’s instructions using the TaqMan® Gene Expression Assay System (Applied Biosystems, USA) with a 7900HT Fast Real Time PCR System (Applied Biosystems, USA). The levels of target mRNAs were normalised using the expression of the 18S ribosomal RNA. The primer IDs are listed in Supplementary Table 1.

The subject of test [7] is CCl4-treated ANX A1-KO mice. The test can be described thus: CCl4-induced liver damage and inflammation in ANX A1-KO mice. Format: in vivo, mouse (C57BL/6J).
Description: ANX A1-deficient mice (C57BL/6J) were generated by homologous recombination at Trans Genic Inc. (Fukuoka, Japan), as shown in Fig. S4. The vector targeting ANX A1 for deleting the coding region (exons 3–6) containing selectable neomycin-resistance (Neo) and PGK promoter genes was used. The targeting vector contained the 3.0 kbp of the 5′ arm flanking sequence and 4.5 kbp of the 3′ arm flanking sequence. The PGK-Neor gene was deleted by crossing with the CAG-flp mouse.[58]
as §2, §3, §4

The mark [8] stands for this setting: sesamin 25 mg kg^−1 twice, 12 h, qPCR, WT.
Setting [9] is: sesamin 25 mg kg^−1 twice, 12 h after CCl4, WT.
[10] abbreviates: sesamin 25 mg kg^−1 twice, 24 h, qPCR, WT.
Where [11] appears, read: sesamin 25 mg kg^−1 orally twice, 24 h, ANX A1-null.
The mark [12] stands for this setting: sesamin 25 mg kg^−1 twice, 12 h, qPCR, ANX A1-null.
Where [13] appears, read: sesamin 25 mg kg^−1 twice, 12 h after CCl4, ANX A1-null.
Where [14] appears, read: sesamin 25 mg kg^−1 twice, 24 h, qPCR, ANX A1-null.

`COc1cccc(-c2cc(=O)c3ccccc3o2)c1N` [PD98059, reference compound]: the “effect on SC1-induced phosphorylation of ANX A1” value in test [1] is given as “suppressed”. The “effect on up-regulation of ANX A1 release” value in test [2] (treated 1 h prior to LPS, dose-dependent) is recorded as “inhibited”.
Take `Oc1ccc(C2OCC3C(c4ccc(O)c(O)c4)OCC23)cc1O` (stereo not drawn) [SC2, (7α,7′α,8α,8′α)-7,9′:7′,9-diepoxylignane-3,3′,4,4′-tetraol]: in test [3] (Homo sapiens, U-937, PMA-differentiated U937 cells, LPS, 12 h, ELISA), the IC50 came to 10.3 µM. In addition, the “inhibition of TNFα production induced by LPS and PMA” value in test [3] is given as “significantly inhibited”. The “inhibitory effects on TNFα production in ANX A1 knockdown cells” value in test [4] is reported as “disappeared”. Besides, in test [5] (3 mmol L^-1 Ca^2+, ITC), the dH is -308.15 kcal/mol and the dS is on record as -1010.16 cal/mol K. Moreover, the Kd in test [5] (Ca^2+ form of ANX A1, 3 mmol L^-1 CaCl2, ITC, 298 K, read-out: binding affinity (Kd)) is 8.05 µM. In test [2], the “cellular release of ANX A1” value was “significantly enhanced”.
Turning to `c1cc2c(cc1[C@H]1OC[C@H]3[C@@H]1CO[C@@H]3c1ccc3c(c1)OCO3)OCO2` [Sesamin, (7α,7′α,8α,8′α)-3,4:3′,4′-bis(methylenedioxy)-7,9′:7′,9-diepoxylignane], the “inhibition of TNFα production induced by LPS and PMA” value in test [3] is given as “little inhibitory effect”. Moreover, the “plasma ALT” value in test [6] (sesamin 25 mg kg^−1 orally twice (1 h before, 7 h after CCl4), 24 h, WT) is “significantly suppressed”; in test [7] (setting [11]), “not observed”. In addition, the “plasma LDH” value is given as “significantly suppressed” in test [6] (sesamin 25 mg kg^−1 orally twice, 24 h, WT) and “not observed” in test [7] (setting [11]). The “liver injury around the central vein (histology)” value in test [6] (sesamin 25 mg kg^−1 orally twice, H&E, WT) was “suppressed liver injury”; in test [7] (sesamin 25 mg kg^−1 orally twice, H&E, ANX A1-null), “not”. In addition, the “MCP-1 mRNA expression in the liver” value in test [6] (setting [8]) is recorded as “significantly suppressed”; in test [7] (setting [12]) it was “not observed”. Moreover, the entries for the “TNFα mRNA expression in the liver” value in test [6] (setting [8]) and in test [7] (setting [12]) were “significantly suppressed” and “not observed”, respectively. The “galectin-3 mRNA expression in the liver” value in test [6] (setting [8]) is “significantly suppressed”; in test [7] (setting [12]), “not observed”. Besides, the “MCP-1 protein in the liver” value in test [6] (setting [9]) was “significantly suppressed”. For the same compound, the “MCP-1 protein in the plasma” value in test [6] (setting [9]) is recorded as “significantly suppressed”; in test [7] (setting [13]) it was “not”. The “TNFα protein in the liver” value in test [6] (setting [9]) is “significantly suppressed”; in test [7] (setting [13]), “not”. Further, the “TNFα protein in the plasma” value is on record as “significantly suppressed” in test [6] (setting [9]) and “not” in test [7] (setting [13]). The “accumulation of galectin-3-positive cells in the liver” value in test [6] (sesamin 25 mg kg^−1 twice, 24 h, histology, WT) is given as “suppressed”; in test [7] (sesamin 25 mg kg^−1 twice, 24 h, histology, ANX A1-null), “not”. Besides, the “liver mRNA expression of Col1a1” value in test [6] (setting [10]) is “suppressed”; in test [7] (setting [14]), “not”. The “liver mRNA expression of αSMA” value is given as “suppressed” in test [6] (setting [10]) and “not” in test [7] (setting [14]). Also, the “binding activity with ANX A1 using ITC analysis” value in test [5] (ITC) was “unable to detect any binding activity”. Further, the “cellular release of ANX A1” value in test [2] is “not”.
